Literature values as cited in patent publication US20240299293A1 (priority 2020, published 2024).

Tested on: human coronaviruses, including CoV-229E and SARS-COV, and animal coronaviruses
Conditions: for elimination of coronaviruses: hexachlorophene, 2% glutaraldehyde, 1% povidone-iodine, benzalkonium chloride, chlorhexidine

Molecule: CCO [ethanol]
- reduction of viability (70% ethanol, viruses in suspension and dried on surfaces, within seconds): greater than 3 log

Molecule: Oc1c(Cl)cc(Cl)c(Cl)c1Cc1c(O)c(Cl)cc(Cl)c1Cl [hexachlorophene]
- elimination of coronaviruses: satisfactory elimination rates

Molecule: OCl [sodium hypochlorite]
- susceptibility of coronaviruses (6% sodium hypochlorite solutions): variable

Molecule: benzalkonium chloride
- elimination of coronaviruses: only if 70% ethanol is present in the solution

Molecule: O=CCCCC=O [glutaraldehyde]
- elimination of coronaviruses: satisfactory elimination rates

Molecule: [H]/N=C(\N/C(=N/[H])NCCCCCCNC(=N)NC(=N)Nc1ccc(Cl)cc1)Nc1ccc(Cl)cc1 [chlorhexidine]
- elimination of coronaviruses: only if 70% ethanol is present in the solution

Molecule: povidone-iodine
- elimination of coronaviruses: satisfactory elimination rates
